# Source: US20110015153A1, “FLY CONTROL METHOD” (E.I. DU PONT DE NEMOURS AND COMPANY, priority 2007, published 2011)
# System: Adult L. serricata (blowflies)
# Experiment: Test A: adult blowflies on blood agar containing test compound, number of dead flies scored
# Type: in vivo
# Settings: 4 flies in test
# Method: Adult L. serricata (blowflies): Adult flies are placed on beds of blood agar (in individual test wells; 4 flies per well) in which test compound (3-bromo-1-(3-chloro-2-pyridinyl)-N-[4-cyano-2-methyl-6-[(methylamino)carbonyl]phenyl]-1H-pyrazole-5-carboxamide) was dissolved/suspended prior to hardening of agar. Flies can take up test compound by both ingestion and contact. Assays are scored by number of dead flies at 2 hours, 4 hours, and 24 hours.
smiles,measurement,setting,value
CCOP(=S)(OCC)Oc1nc(Cl)c(Cl)cc1Cl [Chloropyriphos],Number dead flies at 2 hours,Rate 1 ppm in blood agar,0
same,Number dead flies at 4 hours,Rate 1 ppm in blood agar,1
same,Number dead flies at 24 hours,Rate 1 ppm in blood agar,4
same,Number dead flies at 2 hours,Rate 10 ppm in blood agar,1
same,Number dead flies at 4 hours,Rate 10 ppm in blood agar,4
same,Number dead flies at 24 hours,Rate 10 ppm in blood agar,4
same,Number dead flies at 2 hours,Rate 25 ppm in blood agar,3
same,Number dead flies at 4 hours,Rate 25 ppm in blood agar,4
same,Number dead flies at 24 hours,Rate 25 ppm in blood agar,4
same,Number dead flies at 2 hours,Rate 50 ppm in blood agar,4
same,Number dead flies at 4 hours,Rate 50 ppm in blood agar,4
same,Number dead flies at 24 hours,Rate 50 ppm in blood agar,4
same,Number dead flies at 2 hours,Rate 100 ppm in blood agar,4
same,Number dead flies at 4 hours,Rate 100 ppm in blood agar,4
same,Number dead flies at 24 hours,Rate 100 ppm in blood agar,4
"CNC(=O)c1cc(C#N)cc(C)c1NC(=O)c1cc(Br)nn1-c1ncccc1Cl [Test compound, 3-bromo-1-(3-chloro-2-pyridinyl)-N-[4-cyano-2-methyl-6-[(methylamino)-carbonyl]phenyl]-1H-pyrazole-5-carboxamide]",Number dead flies at 2 hours,Rate 1 ppm in blood agar,0
same,Number dead flies at 4 hours,Rate 1 ppm in blood agar,0
same,Number dead flies at 24 hours,Rate 1 ppm in blood agar,0
same,Number dead flies at 2 hours,Rate 10 ppm in blood agar,0
same,Number dead flies at 4 hours,Rate 10 ppm in blood agar,0
same,Number dead flies at 24 hours,Rate 10 ppm in blood agar,1
same,Number dead flies at 2 hours,Rate 25 ppm in blood agar,0
same,Number dead flies at 4 hours,Rate 25 ppm in blood agar,0
same,Number dead flies at 24 hours,Rate 25 ppm in blood agar,2
same,Number dead flies at 2 hours,Rate 50 ppm in blood agar,0
same,Number dead flies at 4 hours,Rate 50 ppm in blood agar,0
same,Number dead flies at 24 hours,Rate 50 ppm in blood agar,3
same,Number dead flies at 2 hours,Rate 100 ppm in blood agar,0
same,Number dead flies at 4 hours,Rate 100 ppm in blood agar,0
same,Number dead flies at 24 hours,Rate 100 ppm in blood agar,3
